# Measurements: patent publication US8445224B2, “Method for assaying FTO (2-oxoglutarate dependent oxygenase) activity” (Isis Innovation Limited, priority 2007, dated 2013)
# Molecular target: T1, FTO (Mus musculus, UniProt Q8BGW1)
# T1 construct: His tag (pET-28a) with peptide linker (N); made in house; host or cells: E. coli BL21-Gold(DE3)
# Experiment: 2-oxoglutarate decarboxylation (uncoupled 2-OG turnover) assay with purified FTO
# Type: biochemical
# Procedure: FTO was incubated with all necessary cofactors, in various buffers lacking a specific reagent (Fe^2+, ascorbate or DTT) and in the presence of N-oxalyl-glycine (NOG), a generic Fe^2+-2OG-dioxygenase inhibitor at a concentration of 0.5 mM. In addition to Fe^2+ (added in the form of (NH4)2Fe(II)(SO4)2) and 2OG, dithiothreitol (DTT) and sodium ascorbate were added to the reaction mixture: DTT is a reducing agent that helps to maintain Fe^2+.
# These were diluted to a total volume of 100 μl with 50 mM TRIS, pH 7.5. All reagents were mixed and pipetted into a 5 ml plastic screw cap tube, the FTO was added to the tube as a separate drop. A 500 μl Eppendorf tube containing 200 μl Hyamine hydroxide (Fisher Scientific, CO2 trapping agent) was added to each tube and tubes were closed with a rubber septum. After incubation in an environmental shaker at 37° C. for half an hour, 200 μl methanol was added to the contents and the tubes were put on ice for 30 minutes to quench the reaction. The Eppendorf tubes containing the hyamine hydroxide were transferred to scintillation vials, mixed with 5 ml OptiPhase Liquid Scintillation Cocktail (Fisher Scientific) and total ^14C counts quantified using a Beckman L56500 Multi-Purpose Scintillation Counter.
# T1 sequence (Q8BGW1 whole entry): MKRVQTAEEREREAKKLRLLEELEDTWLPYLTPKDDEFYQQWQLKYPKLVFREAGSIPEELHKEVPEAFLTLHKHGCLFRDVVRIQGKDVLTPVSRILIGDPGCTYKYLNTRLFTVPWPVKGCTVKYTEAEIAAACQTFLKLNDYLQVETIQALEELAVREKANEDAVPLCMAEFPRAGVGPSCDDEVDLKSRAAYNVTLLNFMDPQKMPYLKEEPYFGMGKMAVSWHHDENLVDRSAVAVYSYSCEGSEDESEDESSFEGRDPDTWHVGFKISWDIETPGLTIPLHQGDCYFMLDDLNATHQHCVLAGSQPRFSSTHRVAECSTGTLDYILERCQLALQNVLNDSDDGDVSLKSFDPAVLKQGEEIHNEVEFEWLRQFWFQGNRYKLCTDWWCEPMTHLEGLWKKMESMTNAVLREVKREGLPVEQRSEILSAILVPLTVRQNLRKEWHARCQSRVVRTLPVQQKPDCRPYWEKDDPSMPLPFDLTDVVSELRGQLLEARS
SMILES,Stimulation of FTO 2-OG turnover activity (uncoupled turnover),Inhibition of FTO 2-OG turnover (uncoupled) (no methylated DNA substrate)
O=S(=O)([O-])[O-].[Fe+2] [FeSO4],stimulated,–
"O=C(O)C(=O)N[C@H](Cc1ccccc1)C(=O)O [NOFD, N-oxalyl D-phenylalanine]",–,did not inhibit
